From patent US10300070B2, “Metabolically-activated drug conjugates to overcome resistance in cancer therapy” (The Brigham and Women's Hospital, Inc., priority 2014, dated 2019)

Assays:
CD44v6 and EGFR = experiment: CD44/CD44v6-EGFR immunocomplex by immunoprecipitation and western blot; type: cell-based; conditions: MDA-MB-231 cells; docetaxel sublethal dose (10 nM), with or without erlotinib
Method: Laemli sample buffer was prepared as a 5× solution containing □-mercaptoethanol as a reducing agent. Immunoprecipitaion was performed using both classic and direct IP kits purchased from Pierce following manufacturer protocols (Thermo Fisher inc. Rockford, Ill.). Briefly, cell lysates were prepared using IP/Lysis Buffer (Thermo Fisher inc. Rockford, Ill.) in the presence of 2× HALT protease/phosphatase inhibitor cocktail (Thermo Fisher inc. Rockford, Ill.). […] Direct immunoprecipitation was performed following manufacturer protocol. […] Protein samples were resolved by SDS-PAGE and transferred to PVDF membranes prior to incubation at 4 C with indicated primary antibodies; NHE-1, GLUT-1 and cytoplasmic domain-targeting EGFR were purchased from Santa Cruz Biotech (Santa Cruz, Calif.). p70S6K and pp70S6K, mTOR and pMTOR, pERM and ERM, Ezrin and pEzrin, pAKT and AKT, pPRAS40 and PRAS40, EGFR and pEGFR antibodies cleaved caspase-3 and β-Actin were purchased from cell signaling technology (Cambridge, Mass.). EGFR and CD44v6 neutralizing antibodies were purchased from R&D (Minneapolis, Minn.). […] Optical densities of western blots were measured using ImageJ open source software (National Institutes of Health) and validated using Adobe CS5.

tumor tissue = experiment: Whole tissue glucose levels from tumor homogenate after intratumoral injection; type: in vivo, mice; conditions: docetaxel intratumoral injection, within 12 hours post-administration
Method: 1 million 4T-1 mouse mammary carcinoma cells suspended in 100 μL PBS were injected per left flank of 5-6 week old Balb/C (heterotopic) or mammary fat pad (orthotopic). Docetaxel (DTX) was dissolved in pure Ethanol at a concentration of 50 mg/ml mixed 1:1 with Polysorbate 80 (Tween 80) and brought to a final working concentration with PBS. Tumor volumes were assessed by the following formula: (Width×Width×length)/2 and values were utilized to calculate tumor specific growth rate (SGR) by the algorhythm (ln [V2/V1]/[t2−t1)] where V=volume and t=time in days^64. For in vivo analysis of 2-NBDG uptake, mice were treated as indicated (i.e. Docetaxel intratumoral or intravenously) and monitored until tumors reached ˜300 mm^3. Subsequently, mice were administered a 10 mg/kg i.v. injection of 2-NBDG 2 hours prior to sacrificing and harvesting tumors for confocal microscopic analysis by frozen section (described below). […] Glucose quantitation (mg/dL) was measured using the onetouch lifescan glucose monitor (Life Scan, Inc. Militipas, Calif.) by calculating mg of glucose per volume of tissue homogenate (in PBS) and normalized as a ratio of mg/dL of glucose to mg of tissue homogenized. Typically, >250 mg of tissue was homogenized in 50 μL of PBS to achieve a readable output.

residual tumor tissue = experiment: Total intratumoral GSH in residual tumor of syngeneic mammary carcinoma; type: in vivo, mice; conditions: DTX 10 mg/kg i.v., vs vehicle control cohorts
Method: G) Total intratumoral GSH obtained from residual tumor tissue homogenate of a syngeneic mammary carcinoma treated with vehicle or DTX (10 mg/kg i.v.). N=4 groups, ***p<0.001.
In vitro detection of glucose uptake was performed using 2-(N-7-Nitrobenz-2-oxa-1,3-diazol-4-yl)Amino)-2-Deoxyglucose (2-NBDG) (Invitrogen, Carlsbad Calif.), dissolved in DMSO to 50 mM. Cells were pre-treated with kinase inhibitors or vehicle for 3 hours in glucose- and phenol red-free media before addition of 50 μM 2-NBDG and subsequently read by FACS ex/em 488/535 nm. ROS was determined by pre-loading cells with CM-DCFDA (1 μM), washed 2 times with PBS and subsequently treated with H2O2 or vehicle; when kinase inhibitors were included in treatment, cells were first incubated with inhibitor for 3 hours prior to CM-DCFDA loading. Fluorescence was then determined by FACS ex/em 488/535 nm. For the following assays, cells were trypsinized and counted by Nexcelom cell counter (Lawrence, Mass.) prior to being subjected to analysis in order to achieve a quantitative value per cell: Reduced glutathione was determined using a colorimetric glutathione recycling system by DTNB following manufacturer protocol (Biovision, Milpitas Calif.). […] Protein synthesis was measured by two means 1. […] Fluorescence was detected by FACS as described below. […] GFP protein translation was determined by fluorescent microscopy. […]

MDA-MB-231 cells = experiment: Single cell, real-time assessment of mitochondrial ROS (MitoSox); type: cell-based; conditions: docetaxel 50 nM
Method: Single cell analysis was performed as follows: Mitosox Red (Invitrogen, Carlsbad Calif.) was incubated with live parent cells for 30 minutes (5 μM), washed and recovered in phenol red-free DMEM with 2% FBS and treated with docetaxel (50 nM). Equivalent exposure times of immunofluorescent microscopy were used at each interval which was originally set at time 0 against an unstained control cell population. Images were captured by a NIKON Eclipse TI-U microscope with a 20× ELDW or 10× or 40× Plan-Apo objective lens (Nikon, Melville N.Y.) and NIS Elements Viewer version 3.22 (Nikon, Melville N.Y.) imaging software. A negative control (non-transfected) cell subset was used to normalize background and autofluorescence following docetaxel treatment. Individual cells were tracked over time and indications of cell death were noted using a 2 TdT-Fluor In Situ apoptosis detection kit (Trevigen Gaithersburg Md.). Cells were plotted as a function of apoptosis induction (or loss of adherence to culture dish indicating cell death) and changes in Mitosox fluorescence over time as shown in main figures.

Structure (SMILES): CC(=O)O[C@@]12CO[C@@H]1C[C@H](O)[C@@]1(C)C(=O)[C@H](O)C3=C(C)[C@@H](OC(=O)[C@H](O)[C@@H](NC(=O)OC(C)(C)C)c4ccccc4)C[C@@](O)([C@@H](OC(=O)c4ccccc4)[C@H]21)C3(C)C [docetaxel]
- immunocomplex between CD44v6 and EGFR (CD44v6 and EGFR): induced
- whole tissue glucose levels in tumor (tumor tissue): significantly higher
- whole cell GSH in residual tumor (residual tumor tissue): significant global increase
- time of mitochondrial ROS burst in cells which survive (MDA-MB-231 cells): 4 to 8 h
